From PubChem BioAssay AID1996
≈ marks a conversion by molar mass, not a printed value.

Conditions: buffer; pH 7.4; 200.0 µM

| Structure (SMILES) | solubility kinetic [µg/mL] |
| --- | --- |
| Fc1ccc(NC(=S)N2CCOCC2)c(F)c1 | > 38.7 |
| COc1ccc(/C=C2\SC(N3CCCCC3)=NC2=O)cc1 | 1.3 (≈ 4.3 µM) |
| Cc1cc(Cc2c(O)[nH]c(=S)[nH]c2=O)ccc1OC(C)C | 34.8 (≈ 114 µM) |
| O=Cc1c(NCc2ccccc2F)c2ccccc2[nH]c1=O | 4.2 (≈ 14.2 µM) |
| CN1CC(C(=O)c2ccc(F)cc2)C(c2c(F)cccc2Cl)C1 (stereo unspecified) | 40.9 (≈ 122 µM) |
| COC(=O)c1sccc1-c1ccc(/C=N/OC(=O)c2cccs2)o1 | < 0.8 |
| CC(C)c1ccccc1OCCCN1CCCC1.O=C(O)C(=O)O | 47 |
| COCCn1cc(-c2csc(N)n2)c2ccccc21 | 35.1 (≈ 128 µM) |
| CCS(=O)(=O)c1nc2ccccc2n1Cc1ccccn1 | > 45.2 |
| Clc1cccc2c1CCN(Cc1nc(-c3cnccn3)no1)C2 | 33.9 (≈ 103 µM) |
| COc1ccc(CCNC2=CC(=O)CC(C)(C)C2)cc1 | 40.4 (≈ 148 µM) |
| Cl.c1cncc(CNCc2ccco2)c1 | > 33.7 |
| COc1cc(OC)cc(C(=O)NCC(=O)N2CCN(S(=O)(=O)c3ccccc3F)CC2)c1 | 52.1 (≈ 112 µM) |
| CC1(C)CC(=O)N(c2ccc(Cl)c(Cl)c2)C(=O)C1 | 9.6 (≈ 33.5 µM) |
| O=C(NC(=O)c1ccccc1)OCCN1C(=O)c2ccccc2C1=O | > 50.7 |
| O=C(CCNC(=O)c1ccco1)NCc1ccc(C(=O)O)cc1 | > 47.4 |
| O=C1COc2ccc(S(=O)(=O)N3CCc4ccccc43)cc2N1 | 2.4 (≈ 7.26 µM) |
| O=C(COc1ccc(Cl)cc1Cl)c1ccc[nH]1 | 34.9 (≈ 129 µM) |
| CCC(C)NS(=O)(=O)c1cc2c3c(c1)CCN3C(=O)CC2 (stereo unspecified) | > 46.3 |
| COc1cccc(C(=O)Nc2cccc3c2ccc2cccn23)c1 | 1.3 (≈ 4.11 µM) |
| N=c1oc2cc(O)ccc2cc1C(=O)Nc1ccc(F)cc1 | 1.5 (≈ 5.03 µM) |
| O=C(c1ccc(F)cc1)c1ccc(-c2ccc(F)cc2)nc1 | 0.9 (≈ 3.05 µM) |

| Structure (SMILES) | solubility kinetic [µg/mL] |
| --- | --- |
| Cn1cnc(S(=O)(=O)Nc2ccc3c(c2)OCCO3)c1 | 30.2 (≈ 102 µM) |
| CC(=O)N1CCN(C(=O)c2cc(C)nc3ccccc23)CC1 | 33.7 (≈ 113 µM) |
| O=C(Nc1ccncc1)c1ccc2ncsc2c1 | 35.6 (≈ 139 µM) |
| CCN(c1ccccc1)S(=O)(=O)c1ccc(C(=O)N(C)Cc2cccs2)cc1 | 20.9 (≈ 50.4 µM) |
| Cc1ccc2cccc(OCc3ccccc3)c2n1 | 20.8 (≈ 83.4 µM) |
| CCOC(=O)COc1nc(-c2ccc(Cl)cc2)cc(-c2ccco2)c1C#N | < 0.4 |
| CCOC(=O)c1ccc(NC(=O)CNC(=O)c2ccco2)cc1 | 10.2 (≈ 32.2 µM) |
| Brc1nc(-c2ccccc2)nc(-c2ccccc2)c1Br | < 0.4 |
| Cc1ccc(Nc2cc(=O)[nH]c(=O)[nH]2)cc1C | 18.2 (≈ 78.7 µM) |
| CNC(=O)Nc1ccc(C(O)(C(=O)OC)C(F)(F)F)cc1 (stereo unspecified) | > 45.9 |
| COc1cc(/C=C/C(=O)OCC(=O)NCC2CCCCC2)ccc1O | > 52.1 |
| CCOC(=O)C(Cc1c(F)cccc1Cl)c1ccno1 (stereo unspecified) | 29.6 (≈ 99.4 µM) |
| COc1ccccc1C(=O)COC(=O)c1ccc(N(C)C)cc1 | 1.1 (≈ 3.51 µM) |
| O=C(CNC(=O)c1ccc(Br)cc1)Nc1ccc2c(c1)CCC2 | 2.5 (≈ 6.7 µM) |
| Clc1c2c(nc3ccccc13)CCC2 | 4 (≈ 19.6 µM) |
| COC(=O)c1sccc1NC(=O)c1c(Cl)cccc1Cl | 0.7 (≈ 2.12 µM) |
| Cc1ccc(OCC(=O)NC2CCS(=O)(=O)C2)c(C)c1 (stereo unspecified) | > 44.6 |
| CCCNC(=O)NC(=O)CSc1cccc(C(F)(F)F)c1 | 12.9 (≈ 40.3 µM) |
| CCN=c1sc(C(=O)Nc2ccccc2)c(C)n1CC | 43 (≈ 149 µM) |
| Cc1cccc(C)c1NC(=O)Cn1c(=O)c(N2CCCCC2)c(N)n(C)c1=O | > 57.8 |
| CCOC(=O)CSc1nc(-c2ccccc2)ns1 | 6.3 (≈ 22.5 µM) |
| O=S(=O)(Nc1ccc(S(=O)(=O)N2CCCC2)cc1)c1ccc(F)cc1F | > 60.4 |

| Structure (SMILES) | solubility kinetic [µg/mL] |
| --- | --- |
| COc1ccccc1C(=O)NCCC(=O)Nc1cccnc1 | > 44.9 |
| CC(=O)Nc1ccc(NC(=O)c2ccc(-c3ccccc3Cl)o2)cc1 | 0.5 (≈ 1.41 µM) |
| COc1ccccc1CCn1c(N)cc(=O)[nH]c1=O | > 39.2 |
| Cc1ccc(C)c(NC(=O)C(=O)NCCc2c[nH]c3ccccc23)c1 | 0.7 (≈ 2.09 µM) |
| O=C(Nc1cccc(O)c1)c1cccc(NC(=O)c2cccs2)c1 | > 50.8 |
| COc1ccc(S(=O)(=O)N2CCc3ccccc32)cc1C(=O)Nc1ccc(NC(C)=O)cc1 | 7.2 (≈ 15.5 µM) |
| O=C(CSc1nncc2ccccc12)Nc1cccc(C(=O)O)c1 | > 50.9 |
| Nc1nc(Nc2ccccc2F)nc(N2CCCC2)c1[N+](=O)[O-] | 25.8 (≈ 81.1 µM) |
| Cn1c(SCc2ccc([N+](=O)[O-])cc2)nc2c(c1=O)SCC2 | 1.6 (≈ 4.77 µM) |
| CCCNC(=O)C12CCC(C)(c3nc4cc(C)c(C)cc4nc31)C2(C)C (stereo unspecified) | 32.2 (≈ 91.6 µM) |
| Cc1ccc(Oc2ccc(OCC(=O)NC3CCS(=O)(=O)C3)cc2)cc1 (stereo unspecified) | 7.6 (≈ 20.2 µM) |
| O=C(COC(=O)c1cccc(F)c1)Nc1ccc(Cl)cn1 | 6.2 (≈ 20.1 µM) |
| OCCC1CN(Cc2cccc(O)c2)CCN1CCc1ccccc1 (stereo unspecified) | 50.8 (≈ 149 µM) |
| COc1ccccc1NC(=O)c1ccc2[nH]c(C)c(C)c2c1 | 2.1 (≈ 7.13 µM) |
| Cc1ccccc1OCC(O)CN(CCO)Cc1ccccc1.Cl (stereo unspecified) | 40.4 |
| O=C(O)/C(=N/NC(=O)c1ccc(Cl)cc1)c1ccccc1 | > 45.4 |
| CCOC(=O)C(=O)N1CCN(c2ccccc2OC)CC1 | > 43.9 |
| CCc1c(C)nc2c(OC)cccc2c1Cl | 7.7 (≈ 32.7 µM) |
| O=C(COC(=O)c1ccccc1Br)NCc1cccs1 | > 53.1 |
| CCCCc1ccc(NC(=O)N[C@@H](CC(C)C)C(=O)O)cc1 | > 46 |
| COC(=O)Nc1nncs1 | > 23.9 |
| CCCCN(CC)S(=O)(=O)c1ccc2c(c1)n(C)c(=O)c(=O)n2C | 2.8 (≈ 7.92 µM) |

| Structure (SMILES) | solubility kinetic [µg/mL] |
| --- | --- |
| Cc1ccc2c(c1)C(=O)CCCCC(=O)N2 | > 32.6 |
| COC(=O)c1sccc1NC(=S)Nc1ccc(F)cc1F | 42 (≈ 128 µM) |
| CCOC(=O)C1CCN(C(=O)COC(=O)c2c(C)c(CC)nc3ccccc23)CC1 | 20.3 (≈ 49.2 µM) |
| O=C(c1sccc1Cl)N1CCN(Cc2ccc3c(c2)OCO3)CC1 | > 54.7 |
| Cc1ccsc1C(=O)C1CCCN(Cc2cnc(N)nc2)C1 (stereo unspecified) | 37.8 (≈ 119 µM) |
| CCOc1ccc(NC(=O)COC(=O)c2ccc3c(c2)OCO3)cc1 | 4 (≈ 11.7 µM) |
| CN(Cc1ccccc1)C(=O)COc1ccc(C(C)(C)C)cc1 | < 0.7 |
| Cn1nccc1NC(=O)Nc1ccc(OC(F)(F)F)cc1 | > 45 |
| Cc1ccccc1NC(=O)COC(=O)[C@@H]1CCCN1C(=O)c1cccs1 | > 55.9 |
| O=C(NCCOc1ccccc1F)c1cc([N+](=O)[O-])ccc1N1CCOCC1 | 55.5 (≈ 143 µM) |
| O=C(O)c1cc(N2C(=O)CCC2=O)ccc1Cl | > 38 |
| COC(=O)c1ccc(SCc2ccccc2)nc1 | 3.1 (≈ 12 µM) |
| O=C(CCCc1ccccc1)NCCc1ccccc1 | 29.3 (≈ 110 µM) |
| COc1ccc(N2CCN(C(=O)[C@H](C)N3C(=O)C4CC=CCC4C3=O)CC2)cc1 (stereo partly specified) | > 59.6 |
| NCCc1c[nH]c2ccc(OCc3ccccc3)cc12 | 7.8 (≈ 29.3 µM) |
| COc1ccc(CC(=O)Nc2ccncc2Cl)cc1 | > 41.5 |
| CC1CCCCN1C(=O)CNCC1CCCO1.O=C(O)C(=O)O (stereo unspecified) | > 49.6 |
| Cc1ccc(-n2c(O)c(C=NCCCn3ccnc3)c(=O)[nH]c2=O)cc1 | > 53 |
| O=c1c2cc(NC(=S)N3CCCC3)ccc2nc2n1CCCCC2 | 6.1 (≈ 17.8 µM) |
| CC1CCCCC1Nc1ncnc2sccc12 (stereo unspecified) | > 37.1 |
